US20100280010A1, “CHEMICAL COMPOUNDS” (priority 2006, published 2010)

What follows are molecules tested on HIV-1 (Ba-L or IIIB) infection of HOS cell line (expressing hCXCR4/hCCR5/hCD4/pHIV-LTR-luciferase) (assay: HOS HIV-1 Infectivity Assay). Settings: Human immunodeficiency virus 1, HOS, virus strain not given, read-out: Activity Level.
Assay type: cell-based
Experimental: Compounds were profiled against two HIV-1 viruses, the M-tropic (CCR5 utilizing) Ba-L strain and the T-tropic (CXCR4 utilizing) IIIB strain. Ba-L was propagated in either peripheral blood lymphocytes or SupT1/CCR5+/CXCR4+ cells. IIIB was propagated in peripheral blood lymphocytes. Compounds were tested for their ability to block infection of the HOS cell line (expressing hCXCR4/hCCR5/hCD4/pHIV-LTR-luciferase) by either HIV-1 Ba-L or HIV-1 IIIB. Compound cytotoxicity was also examined in the absence of virus addition.
HOS cells (expressing hCXCR4/hCCR5/hCD4/pHIV-LTR-luciferase) were harvested and diluted in Dulbeccos modified Eagles media supplemented with 2% FCS to a concentration of 120,000 cells/ml. The cells were plated into 96-well plates (50 μl per well) and the plates were placed in a tissue culture incubator ([…]; 5% CO2195% air) for a period of 24 h.
Subsequently, 50 μl of the desired drug solution (2 times the final concentration) was added to each well and the plates were returned to the tissue culture incubator (370° C.; 5% CO2/95% air) for 1 h. Following this incubation, 60 μl of diluted virus (4 times the final concentration) was added to 60 μl of 2× the final desired concentration of the compound and 100 μl of this compound/virus mix was added to each well (approximately 2 million RLU per well of virus). The plates were returned to the tissue culture incubator (370° C.; 5% CO2/95% air) and were incubated for a further 96 h.
Following this incubation the endpoint for the virally infected cultures was quantified following addition of Steady-Glo Luciferase assay system reagent (Promega, Madison, Wis.). Cell viability or non-infected cultures was measured using a CellTiter-Glo luminescent cell viability assay system (Promega, Madison, Wis.). All luminescent readouts are performed on a Topcount luminescence detector (Packard, Meridien, Conn.).
Work on `CC(=O)c1c(CN(C)[C@H]2CCCc3cccnc32)nc2cccc(N3CCN(C)CC3)n12` [Example 14, 1-[5-(4-Methyl-1-piperazinyl)-2-({methyl[(8S)-5,6,7,8-tetrahydro-8-quinolinyl]amino}methyl)imidazo[1,2-a]pyridin-3-yl]ethanone] yielded an IC50 of under 100 nM. `CN1CCN(c2cccc3nc(CN(C)[C@H]4CCCc5cccnc54)c(Br)n23)CC1` [Example 16, (8S)—N-{[3-Bromo-5-(4-methyl-1-piperazinyl)imidazo[1,2-a]pyridin-2-yl]methyl}-N-methyl-5,6,7,8-tetrahydro-8-quinolinamine] gave an IC50 of under 100 nM. `CN1CCN(c2cccc3nc(CN(C)[C@H]4CCCc5cccnc54)c(C#N)n23)CC1` [Example 17, 5-(4-Methyl-1-piperazinyl)-2-({methyl[(8S)-5,6,7,8-tetrahydro-8-quinolinyl]amino}methyl)imidazo[1,2-a]pyridine-3-carbonitrile] was tested, and the IC50 was under 100 nM. With `CN1CCN(c2cccc3nc(CN(C)[C@H]4CCCc5cccnc54)c(C(N)=O)n23)CC1` [Example 18, 5-(4-Methyl-1-piperazinyl)-2-({methyl[(8S)-5,6,7,8-tetrahydro-8-quinolinyl]amino}methyl)imidazo[1,2-a]pyridine-3-carboxamide] the IC50 was under 100 nM. `CCN(Cc1nc2cccc(N3CCN(C)CC3)n2c1C#N)[C@H]1CCCc2cccnc21` [Example 21, 2-({Ethyl[(8S)-5,6,7,8-tetrahydro-8-quinolinyl]amino}methyl)-5-(4-methyl-1-piperazinyl)imidazo[1,2-a]pyridine-3-carbonitrile] gave an IC50 of under 100 nM. Work on `CCN(Cc1nc2cccc(N3CCN(C)CC3)n2c1C(N)=O)[C@H]1CCCc2cccnc21` [Example 22, 2-({Ethyl[(8S)-5,6,7,8-tetrahydro-8-quinolinyl]amino}methyl)-5-(4-methyl-1-piperazinyl)imidazo[1,2-a]pyridine-3-carboxamide] yielded an IC50 of under 100 nM. In the case of `CCCN(Cc1nc2cccc(N3CCN(C)CC3)n2c1C#N)[C@H]1CCCc2cccnc21` [Example 25, 5-(4-Methyl-1-piperazinyl)-2-({propyl[(8S)-5,6,7,8-tetrahydro-8-quinolinyl]amino}methyl)imidazo[1,2-a]pyridine-3-carbonitrile], the IC50 is reported as under 100 nM. With `CCCN(Cc1nc2cccc(N3CCN(C)CC3)n2c1C(N)=O)[C@H]1CCCc2cccnc21` [Example 26, 5-(4-Methyl-1-piperazinyl)-2-({propyl[(8S)-5,6,7,8-tetrahydro-8-quinolinyl]amino}methyl)imidazo[1,2-a]pyridine-3-carboxamide] the IC50 was under 100 nM. `CC(C)N(Cc1nc2cccc(N3CCN(C)CC3)n2c1C#N)[C@H]1CCCc2cccnc21` [Example 29, 2-({(1-Methylethyl)[(8S)-5,6,7,8-tetrahydro-8-quinolinyl]amino}methyl)-5-(4-methyl-1-piperazinyl)imidazo[1,2-a]pyridine-3-carbonitrile] gave an IC50 of under 100 nM. Molecule `CC(C)N(Cc1nc2cccc(N3CCN(C)CC3)n2c1C(N)=O)[C@H]1CCCc2cccnc21` [Example 30, 2-([(1-Methylethyl)[(8S)-5,6,7,8-tetrahydro-8-quinolinyl]amino]methyl)-5-(4-methyl-1-piperazinyl)imidazo[1,2-a]pyridine-3-carboxamide] has an IC50 of under 100 nM. `CN1CCN(c2cccc3nc(CN(CC4CC4)[C@H]4CCCc5cccnc54)c(C#N)n23)CC1` [Example 33, 2-({(Cyclopropylmethyl)[(8S)-5,6,7,8-tetrahydro-8-quinolinyl]amino}methyl)-5-(4-methyl-1-piperazinyl)imidazo[1,2-a]pyridine-3-carbonitrile] was tested, and the IC50 was under 100 nM. Molecule `CN(C)[C@@H]1CCN(c2cccc3nc(CN(C)[C@H]4CCCc5cccnc54)c(C#N)n23)C1` [Example 38, 5-[(3R)-3-(Dimethylamino)-1-pyrrolidinyl]-2-({methyl[(8S)-5,6,7,8-tetrahydro-8-quinolinyl]amino}methyl)imidazo[1,2-a]pyridine-3-carbonitrile] has an IC50 of under 100 nM. Molecule `CN(C)[C@@H]1CCN(c2cccc3nc(CN(C)[C@H]4CCCc5cccnc54)c(C(N)=O)n23)C1` [Example 39, 5-[(3R)-3-(Dimethylamino)-1-pyrrolidinyl]-2-({methyl[(8S)-5,6,7,8-tetrahydro-8-quinolinyl]amino}methyl)imidazo[1,2-a]pyridine-3-carboxamide] has an IC50 of under 100 nM. `CCN(Cc1nc2cccc(N3CC[C@@H](N(C)C)C3)n2c1C#N)[C@H]1CCCc2cccnc21` [Example 42, 5-[(3R)-3-(Dimethylamino)-1-pyrrolidinyl]-2-({ethyl[(8S)-5,6,7,8-tetrahydro-8-quinolinyl]amino}methyl)imidazo[1,2-a]pyridine-3-carbonitrile] gave an IC50 of under 100 nM. `CCN(Cc1nc2cccc(N3CC[C@@H](N(C)C)C3)n2c1C(N)=O)[C@H]1CCCc2cccnc21` [Example 43, 5-[(3R)-3-(Dimethylamino)-1-pyrrolidinyl]-2-({ethyl[(8S)-5,6,7,8-tetrahydro-8-quinolinyl]amino}methyl)imidazo[1,2-d]pyridine-3-carboxamide] gave an IC50 of under 100 nM. `CCCN(Cc1nc2cccc(N3CC[C@@H](N(C)C)C3)n2c1C#N)[C@H]1CCCc2cccnc21` [Example 46, 5-[(3R)-3-(Dimethylamino)-1-pyrrolidinyl]-2-({propyl[(8S)-5,6,7,8-tetrahydro-8-quinolinyl]amino}methyl)imidazo[1,2-a]pyridine-3-carbonitrile] showed an IC50 of under 100 nM. Work on `CCCN(Cc1nc2cccc(N3CC[C@@H](N(C)C)C3)n2c1C(N)=O)[C@H]1CCCc2cccnc21` [Example 47, 5-[(3R)-3-(Dimethylamino)-1-pyrrolidinyl]-2-({propyl[(8S)-5,6,7,8-tetrahydro-8-quinolinyl]amino}methyl)imidazo[1,2-a]pyridine-3-carboxamide] yielded an IC50 of under 100 nM. For `CC(C)N(Cc1nc2cccc(N3CC[C@@H](N(C)C)C3)n2c1C#N)[C@H]1CCCc2cccnc21` [Example 50, 5-[(3R)-3-(Dimethylamino)-1-pyrrolidinyl]-2-({(1-methylethyl)[(8S)-5,6,7,8-tetrahydro-8-quinolinyl]amino}methyl)imidazo[1,2-a]pyridine-3-carbonitrile], the IC50 was under 100 nM. Work on `CC(C)N(Cc1nc2cccc(N3CC[C@@H](N(C)C)C3)n2c1C(N)=O)[C@H]1CCCc2cccnc21` [Example 51, 5-[(3R)-3-(Dimethylamino)-1-pyrrolidinyl]-2-({(1-methylethyl)[(8S)-5,6,7,8-tetrahydro-8-quinolinyl]amino}methyl)imidazo[1,2-a]pyridine-3-carboxamide] yielded an IC50 of under 100 nM. In the case of `CN(C)[C@@H]1CCN(c2cccc3nc(CN(Cc4ccccc4)[C@H]4CCCc5cccnc54)c(C#N)n23)C1` [Example 53, 5-[(3R)-3-(Dimethylamino)-1-pyrrolidinyl]-2-({(phenylmethyl)[(8S)-5,6,7,8-tetrahydro-8-quinolinyl]amino}methyl)imidazo[1,2-a]pyridine-3-carbonitrile], the IC50 is reported as under 100 nM. Work on `CN(C)C1CCN(c2cccc3nc(CN(C)[C@H]4CCCc5cccnc54)c(C#N)n23)CC1` [Example 58, 5-[4-(dimethylamino)-1-piperidinyl]-2-({methyl[(8S)-5,6,7,8-tetrahydro-8-quinolinyl]amino}methyl)imidazo[1,2-a]pyridine-3-carbonitrile] yielded an IC50 of under 100 nM. For `CN(C)C1CCN(c2cccc3nc(CN(C)[C@H]4CCCc5cccnc54)c(C(N)=O)n23)CC1` [Example 59], the IC50 was under 100 nM. Molecule `CCN(Cc1nc2cccc(N3CCC(N(C)C)CC3)n2c1C#N)[C@H]1CCCc2cccnc21` [Example 62, 5-[4-(dimethylamino)-1-piperidinyl]-2-({ethyl[(8S)-5,6,7,8-tetrahydro-8-quinolinyl]amino}methyl)imidazo[1,2-a]pyridine-3-carbonitrile] has an IC50 of under 100 nM. `CCN(Cc1nc2cccc(N3CCC(N(C)C)CC3)n2c1C(N)=O)[C@H]1CCCc2cccnc21` [Example 63, 5-[4-(dimethylamino)-1-piperidinyl]-2-({ethyl[(8S)-5,6,7,8-tetrahydro-8-quinolinyl]amino}methyl)imidazo[1,2-a]pyridine-3-carboxamide] gave an IC50 of under 100 nM. For `CCCN(Cc1cn2c(N3CCC(N(C)C)CC3)cccc2n1)[C@H]1CCCc2cccnc21` [Example 64, (8S)—N-({5-[4-(dimethylamino)-1-piperidinyl]imidazo[1,2-a]pyridin-2-yl}methyl)-N-propyl-5,6,7,8-tetrahydro-8-quinolinamine], the IC50 was under 100 nM. In the case of `CCCN(Cc1nc2cccc(N3CCC(N(C)C)CC3)n2c1C#N)[C@H]1CCCc2cccnc21` [Example 66, 5-[4-(dimethylamino)-1-piperidinyl]-2-({propyl[(8S)-5,6,7,8-tetrahydro-8-quinolinyl]amino}methyl)imidazo[1,2-a]pyridine-3-carbonitrile], the IC50 is reported as under 100 nM. `CCCN(Cc1nc2cccc(N3CCC(N(C)C)CC3)n2c1C(N)=O)[C@H]1CCCc2cccnc21` [Example 67, 5-[4-(dimethylamino)-1-piperidinyl]-2-({propyl[(8S)-5,6,7,8-tetrahydro-8-quinolinyl]amino}methyl)imidazo[1,2-a]pyridine-3-carboxamide] gave an IC50 of under 100 nM.
